Reference: patent US12209091B2, “Isoindolinone derivatives as selective allosteric inhibitors of Egfr mutant cancers” (Hoffmann-La Roche Inc., priority 2018, dated 2025)

Molecular target: T1, Phospho EGFR TMLR (H1975 cells) (Homo sapiens, UniProt P00533, L858R/T790M)
T1 construct: H1975 cell line (CRL-5908; Lot BA70803) was obtained from American Type Culture Collection; host or cells: H1975
Experiment: HTRF Phospho EGFR TMLR assay (cellular), H1975
Type: cell-based
Details: H1975 cell line, 16 hours compound incubation, Phospho-EGFR HTRF readout
Method: HTRF Phospho EGFR TMLR Assay (Cellular)
H1975 cell line (CRL-5908; Lot BA70803) was obtained from American Type Culture Collection (Manassas, VA, USA). Cells were maintained at 37° C., 5% CO2 in complete Media RPMI 1640 without phenol red containing 0.3 mg/ml glutamine, 100 IU/ml penicillin, and […] streptomycin (Gibco, 15140-122) supplemented with 10% fetal bovine serum (FBS, Gibco, 10091-148). Compounds were diluted into starving medium RPMI 1640 Media (Gibco, 11835-030) without phenol red containing 0.3 mg/ml glutamine, 100 IU/ml penicillin, and […] streptomycin (Gibco).
Cells were cultured for 24 h in a 384-well plate (Greiner Bio-One, Nr. 784-080; 5000 cells/well) using 8 μl of complete medium/well. Then 4 μl/well of the 3× compound solution, containing a factor 3 dilution series of the compound or DMSO in starving medium, were added to the cells (final DMSO 0.33%). After 16 hours at 37° C., 5% CO2, 95% rel. humidity cells were lysed by adding to the compound mix 4 μl/well of the supplemented lysis buffer (Cis-bio, Phospho-EGFR HTRF kit, 64EG1PEH), followed by incubation for 30 min at room temperature with shaking (400 rpm). Then 4 μl of a mixture of anti-Phospho-EGFR Cryptate and of anti-Phospho-EGFR-d2 antibody solutions prepared in the detection buffer was added. The plates were then incubated for 4 h at room temperature before reading the fluorescence emission at 620 and 665 nm using an Envision reader (Perkin Elmer).

T1 sequence (P00533 25-1210 T790M/L858R): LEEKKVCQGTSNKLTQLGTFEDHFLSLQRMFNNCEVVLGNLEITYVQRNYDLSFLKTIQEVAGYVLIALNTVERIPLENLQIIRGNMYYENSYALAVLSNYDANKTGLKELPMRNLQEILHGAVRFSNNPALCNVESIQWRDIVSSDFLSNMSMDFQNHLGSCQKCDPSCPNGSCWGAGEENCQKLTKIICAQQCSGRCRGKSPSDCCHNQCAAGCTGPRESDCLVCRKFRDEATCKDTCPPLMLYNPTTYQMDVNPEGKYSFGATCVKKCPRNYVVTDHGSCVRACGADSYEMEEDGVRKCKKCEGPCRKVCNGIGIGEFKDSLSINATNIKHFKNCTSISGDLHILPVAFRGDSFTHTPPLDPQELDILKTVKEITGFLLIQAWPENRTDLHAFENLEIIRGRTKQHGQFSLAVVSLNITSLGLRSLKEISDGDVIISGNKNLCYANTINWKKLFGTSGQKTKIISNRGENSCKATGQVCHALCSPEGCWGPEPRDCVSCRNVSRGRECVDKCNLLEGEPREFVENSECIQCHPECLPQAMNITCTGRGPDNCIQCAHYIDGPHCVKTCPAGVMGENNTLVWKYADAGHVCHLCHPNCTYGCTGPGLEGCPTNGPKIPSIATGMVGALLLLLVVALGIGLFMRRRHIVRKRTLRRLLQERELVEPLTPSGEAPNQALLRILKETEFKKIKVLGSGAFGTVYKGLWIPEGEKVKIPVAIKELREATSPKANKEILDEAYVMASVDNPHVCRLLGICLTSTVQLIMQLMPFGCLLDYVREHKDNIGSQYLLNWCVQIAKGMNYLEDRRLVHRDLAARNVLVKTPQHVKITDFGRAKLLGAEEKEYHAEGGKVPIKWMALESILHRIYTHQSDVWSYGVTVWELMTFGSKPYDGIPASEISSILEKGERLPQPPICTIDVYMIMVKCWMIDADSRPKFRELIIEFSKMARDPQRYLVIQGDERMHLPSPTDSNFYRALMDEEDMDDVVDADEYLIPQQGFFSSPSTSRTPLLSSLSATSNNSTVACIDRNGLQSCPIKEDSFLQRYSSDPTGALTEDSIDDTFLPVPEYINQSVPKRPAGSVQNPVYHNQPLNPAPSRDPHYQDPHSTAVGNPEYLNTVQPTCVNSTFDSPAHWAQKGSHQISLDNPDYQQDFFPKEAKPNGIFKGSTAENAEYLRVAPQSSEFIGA

| IC50 [nM] | Compound |
| --- | --- |
| 3 | CN1CCN(Cc2ccc(C#Cc3cc(F)c4c(c3)C(=O)N(C(C(=O)Nc3nccs3)c3ncn5c3CCC5)C4)cc2)CC1 (racemic) [Example 1, (2RS)-2-(6,7-Dihydro-5H-pyrrolo[1,2-c]imidazol-1-yl)-2-[4-fluoro-6-[2-[4-[(4-methylpiperazin-1-yl)methyl]phenyl]ethynyl]-1-oxo-isoindolin-2-yl]-N-thiazol-2-yl-acetamide] |
| 1 | O=C(Nc1nccs1)C(c1ncn2c1CCC2)N1Cc2c(F)cc(C#Cc3ccc(CN4CCC(O)CC4)cc3)cc2C1=O (racemic) [Example 2, (2RS)-2-(6,7-Dihydro-5H-pyrrolo[1,2-c]imidazol-1-yl)-2-[4-fluoro-6-[2-[4-[(4-hydroxy-1-piperidyl)methyl]phenyl]ethynyl]-1-oxo-isoindolin-2-yl]-N-thiazol-2-yl-acetamide] |
| 2 | O=C(Nc1nccs1)C(c1ncn2c1CCC2)N1Cc2c(F)cc(-c3ccc(N4CCNCC4)cc3)cc2C1=O (racemic) [Example 3, (2RS)-2-(6,7-Dihydro-5H-pyrrolo[1,2-c]imidazol-1-yl)-2-[4-fluoro-1-oxo-6-(4-piperazin-1-ylphenyl)isoindolin-2-yl]-N-thiazol-2-yl-acetamide] |
| 4 | CCN1CCN(c2ccc(-c3cc(F)c4c(c3)C(=O)N(C(C(=O)Nc3nccs3)c3ncn5c3CCC5)C4)cn2)CC1 (racemic) [Example 4, (2RS)-2-(6,7-Dihydro-5H-pyrrolo[1,2-c]imidazol-1-yl)-2-[6-[6-(4-ethylpiperazin-1-yl)-3-pyridyl]-4-fluoro-1-oxo-isoindolin-2-yl]-N-thiazol-2-yl-acetamide] |
| 3 | CCN1CCN(c2ccc(-c3cc(F)c4c(c3)C(=O)N(C(C(=O)Nc3nccs3)c3ncn5c3CCC5)C4)cc2)CC1 (racemic) [Example 5, (2RS)-2-(6,7-Dihydro-5H-pyrrolo[1,2-c]imidazol-1-yl)-2-[6-[4-(4-ethylpiperazin-1-yl)phenyl]-4-fluoro-1-oxo-isoindolin-2-yl]-N-thiazol-2-yl-acetamide] |
| 4 | CCN1CCN(c2ccc(-c3cc(Cl)c4c(c3)C(=O)N(C(C(=O)Nc3nccs3)c3ncn5c3CCC5)C4)cc2)CC1 (racemic) [Example 6, (2RS)-2-[4-Chloro-6-[4-(4-ethylpiperazin-1-yl)phenyl]-1-oxo-isoindolin-2-yl]-2-(6,7-dihydro-5H-pyrrolo[1,2-c]imidazol-1-yl)-N-thiazol-2-yl-acetamide] |
| 1 | O=C(Nc1nccs1)C(c1ncn2c1CCC2)N1Cc2c(F)cc(-c3ccc(N4CCC(O)CC4)cc3)cc2C1=O (racemic) [Example 7, (2RS)-2-(6,7-Dihydro-5H-pyrrolo[1,2-c]imidazol-1-yl)-2-[4-fluoro-6-[4-(4-hydroxy-1-piperidyl)phenyl]-1-oxo-isoindolin-2-yl]-N-thiazol-2-yl-acetamide] |
| 2 | O=C(Nc1nccs1)C(c1ncn2c1CCC2)N1Cc2c(Cl)cc(-c3ccc(N4CCC(O)CC4)nc3)cc2C1=O (racemic) [Example 8, (2RS)-2-[4-Chloro-6-[6-(4-hydroxy-1-piperidyl)-3-pyridyl]-1-oxo-isoindolin-2-yl]-2-(6,7-dihydro-5H-pyrrolo[1,2-c]imidazol-1-yl)-N-thiazol-2-yl-acetamide] |
| 4 | O=C(Nc1nccs1)C(c1ncn2c1CCC2)N1Cc2c(Cl)cc(C#Cc3ccc(CN4CCC(O)CC4)cc3)cc2C1=O (racemic) [Example 9, (2RS)-2-[4-Chloro-6-[2-[4-[(4-hydroxy-1-piperidyl)methyl]phenyl]ethynyl]-1-oxo-isoindolin-2-yl]-2-(6,7-dihydro-5H-pyrrolo[1,2-c]imidazol-1-yl)-N-thiazol-2-yl-acetamide] |
| 8 | O=C(Nc1nccs1)C(c1ccn2c1CCC2)N1Cc2c(F)cc(C#Cc3ccc(CN4CCC(O)CC4)cc3)cc2C1=O (racemic) [Example 10, (2RS)-2-(6,7-Dihydro-5H-pyrrolizin-1-yl)-2-[4-fluoro-6-[2-[4-[(4-hydroxy-1-piperidyl)methyl]phenyl]ethynyl]-1-oxo-isoindolin-2-yl]-N-thiazol-2-yl-acetamide] |
| 2 | O=C(Nc1nccs1)C(c1ncn2c1CCC2)N1Cc2c(Cl)cc(-c3ccc(N4CCC(O)CC4)cc3)cc2C1=O (racemic) [Example 11, (2RS)-2-[4-Chloro-6-[4-(4-hydroxy-1-piperidyl)phenyl]-1-oxo-isoindolin-2-yl]-2-(6,7-dihydro-5H-pyrrolo[1,2-c]imidazol-1-yl)-N-thiazol-2-yl-acetamide] |
| 2 | O=C(Nc1nccs1)C(c1ncn2c1CCC2)N1Cc2c(F)cc(C#Cc3ccc(CO)cc3)cc2C1=O (racemic) [Example 12, (2RS)-2-(6,7-Dihydro-5H-pyrrolo[1,2-c]imidazol-1-yl)-2-[4-fluoro-6-[2-[4-(hydroxymethyl)phenyl]ethynyl]-1-oxo-isoindolin-2-yl]-N-thiazol-2-yl-acetamide] |
| 3 | O=C(Nc1nccs1)C(c1ncn2c1CCC2)N1Cc2c(F)cc(C#Cc3ccc(CN4CCC(O)CC4)cc3)c(Cl)c2C1=O (racemic) [Example 13, (2RS)-2-[7-chloro-4-fluoro-6-[2-[4-[(4-hydroxy-1-piperidyl)methyl]phenyl]ethynyl]-1-oxo-isoindolin-2-yl]-2-(6,7-dihydro-5H-pyrrolo[1,2-c]imidazol-1-yl)-N-thiazol-2-yl-acetamide] |
| 4 | O=C(Nc1nccs1)C(c1ncn2c1CCC2)N1Cc2c(F)cc(C#Cc3ccc(CN4CCCCC4)cc3)cc2C1=O (racemic) [Example 14, (2RS)-2-(6,7-Dihydro-5H-pyrrolo[1,2-c]imidazol-1-yl)-2-[4-fluoro-1-oxo-6-[2-[4-(1-piperidylmethyl)phenyl]ethynyl]isoindolin-2-yl]-N-thiazol-2-yl-acetamide] |
